Assay results as given in the supplement of paper PMC10307832.

What was measured:
Experiment in all cases: relative viability (nuclei count vs DMSO), 5 days (fraction); higher = more cells survive
[1] = compound: CS(=O)(=O)c1ccc(-c2cnc(N)c(C(=O)Nc3ccccc3)n2)cc1 [VE-821] + CC(=O)c1c(C)c2cnc(Nc3ccc(N4CCNCC4)cn3)nc2n(C2CCCC2)c1=O [Palbociclib] (partner 0.5 µM)
In short: (§1)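 Cells from lung cancer lines were seeded into 1536-well plates and, one day later, dosed by pin tool. Treatments were either a single drug or a fixed dose of an anchor drug with five library-drug doses (not always all listed) in √10 steps. After 5 days, nuclei were stained in a one-step fixation (final 0.05% Triton X-100, 1% formaldehyde, 1 ug/ml Hoechst) and counted on 4× images, and relative viability is the treated-to-vehicle nuclei ratio, as the median of duplicate plates.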

[2] = compound: CS(=O)(=O)c1ccc(C(=O)Nc2ccc(Cl)c(-c3ccccn3)c2)c(Cl)c1 [Vismodegib] + Cc1cc(Nc2cc(N3CCN(C)CC3)nc(Sc3ccc(NC(=O)C4CC4)cc3)n2)n[nH]1 [Tozasertib] (partner 0.1 µM)
In short: as §1

[3] = compound: N#CC[C@H](C1CCCC1)n1cc(-c2ncnc3[nH]ccc23)cn1 [Ruxolitinib] + CC1(C)CCC(c2ccc(Cl)cc2)=C(CN2CCN(c3ccc(C(=O)NS(=O)(=O)c4ccc(N[C@H](CCN5CCOCC5)CSc5ccccc5)c(S(=O)(=O)C(F)(F)F)c4)cc3)CC2)C1 [Navitoclax] (partner 0.5 µM)
In short: as §1

[4] = compound: N#CC[C@H](C1CCCC1)n1cc(-c2ncnc3[nH]ccc23)cn1 [Ruxolitinib] + NC(=O)Nc1cc(-c2cccc(F)c2)sc1C(=O)N[C@H]1CCCNC1 [AZD7762] (partner 0.2 µM)
In short: as §1

Cell Line	relative viability ([1]; first compound 0.08 µM)	relative viability ([1]; first compound 0.253 µM)	relative viability ([1]; first compound 0.8 µM)	relative viability ([1]; first compound 2.53 µM)	relative viability ([1]; first compound 8 µM)	relative viability ([2]; first compound 0.08 µM)	relative viability ([2]; first compound 0.253 µM)	relative viability ([2]; first compound 0.8 µM)	relative viability ([2]; first compound 2.53 µM)	relative viability ([2]; first compound 8 µM)	relative viability ([3]; first compound 0.08 µM)	relative viability ([3]; first compound 0.253 µM)	relative viability ([3]; first compound 0.8 µM)	relative viability ([3]; first compound 2.53 µM)	relative viability ([3]; first compound 8 µM)	relative viability ([4]; first compound 0.08 µM)	relative viability ([4]; first compound 0.8 µM)	relative viability ([4]; first compound 2.53 µM)	relative viability ([4]; first compound 8 µM)	relative viability ([4]; first compound 0.253 µM)
NCI-H2087	0.263	0.192	0.292	0.259	0.297	0.258	0.306	0.212	0.185	0.234	0.922	0.874	0.846	0.801	0.795	1.19	1.39	1.21	0.956	–
NCI-H2126	0.36	0.336	0.333	0.296	0.32	0.841	0.814	0.849	0.772	0.794	0.82	0.725	0.781	0.8	0.689	0.954	1.09	0.995	0.967	1.12
NCI-H2170	0.432	0.414	0.381	0.45	0.32	0.733	0.664	0.673	0.675	0.743	0.6	0.575	0.618	0.593	0.48	0.908	0.959	0.76	0.706	0.834
NCI-H2347	0.385	0.492	0.42	0.457	0.498	0.589	0.574	0.554	0.485	0.574	0.783	0.72	0.99	0.741	0.758	0.8	0.766	0.769	0.877	0.89
NCI-H2405	0.533	0.496	0.541	0.558	0.408	0.705	0.733	0.7	0.709	0.765	–	0.771	1.28	0.456	0.471	0.738	0.818	0.488	0.416	0.792
NCI-H3122	0.196	0.187	0.166	0.225	0.227	0.399	0.382	0.343	0.384	0.373	1.04	1.03	0.981	0.923	0.963	0.98	1.05	0.943	0.891	1.07
PC-3 [JPC-3]	0.266	0.478	0.58	0.54	0.56	0.932	0.87	0.933	0.852	0.873	0.69	0.771	0.771	0.757	0.73	–	0.866	0.946	0.814	0.82
PC-14	0.648	0.46	0.455	0.351	0.169	0.554	0.606	0.556	0.539	0.547	–	1.03	1.01	0.927	0.723	–	0.363	0.347	0.359	0.356
RERF-LC-KJ	1.2	1.01	0.973	0.929	0.792	0.495	0.532	0.413	0.506	0.449	1.05	0.963	1.59	1.15	0.657	0.949	1	0.98	1.01	–
